{
  "source": "patent US7470550B2",
  "about": "“Method of evaluating cell activity” (Toyo Advanced Technologies Co., Ltd., priority 2001, dated 2008)",
  "molecules": {"B1": {"name": "pleiotrophin: agent which does not bind to CTLL-2 cells (protein, UniProt P21246 33-168, looked up)", "Pleiotrophin": "GKKEKPEKKVKKSDCGEWQWSVCVPTSGDCGLGTREGTRTGAECKQTMKTQRCKIPCNWKKQFGAECKYQFQAWGECDLNTALKTRTGSLKRALHNAECQKTVTISKPCGKLTKPKPQAESKKKKKEGKKQEKMLD"}},
  "assay_type_in_all_cases": "cell-based",
  "key": {"Mast cells": {"test_system": "Mast cells", "assay": "SPR measurement of reaction of mast cells on an antigen", "procedure": "(§1) The method of the invention will be explained in more detail by the following examples, which are not intended to limit the scope of the invention. In the following examples, SPR-CELLIA (Japan Laser Electronic Co.) was used as an SPR analyzer. The sensor chip for amine coupling was prepared as follows.\n(§2) In 10 μM solution of 4,4-dithiodibutyric acid in ethanol was immersed a sensor chip and stirred for 30 minutes. Thereafter, the chip was washed with dry ethanol and dried. Water-soluble carbodiimide (25 mg) was dissolved in 1 ml of MilliQ water, and 15mg of N-hydroxysuccinimide in 9 ml of 1,4-dioxane, respectively. Both solutions were mixed immediately before the dried sensor chip was immersed therein and the mixture stirred for 10 minutes. Then, there was added 10 ml of MilliQ water, and the mixture was stirred for 5 minutes. The chip was washed with MilliQ water and preserved in MilliQ water.\nMast cells (2×10^5 cells/ml, 70 μl) were immobilized on a sensor chip in the same manner as in Example 1. IgE was added to a measuring portion, and incubated in a CO2 incubator at 37° C. overnight. The chip was set on an SPR analyzer, and a running buffer (PIPES buffer, pH 7.2) was perfused at a flow rate of 15 μl/min at a fixed temperature of 37° C. Then, 60 μl of 100 ng/ml DNP-HSA (dinitrophenyl-human serum albumin) or 10 μg/ml DNP-lysine was injected, while a running buffer was perfused continuously, and the change of signal was measured. The composition of PIPES (piperaine-N,N′-bis[2-ethane-sulfonic acid]; 1,4-piperzine-diethanesulfonic acid) buffer is as shown in Table 1."}, "CTLL-2 cells": {"test_system": "CTLL-2 cells", "assay": "SPR measurement of reaction of CTLL2 cells (suspended cells) with IL-2", "settings": "living CTLL-2 cells immobilized on sensor chip, 37° C., PBS perfusion 15 μl/min; IL-2 62.5 ng/ml, 60 μl", "source_text": "In the method of the invention, cells are immobilized on a analyzer in the same manner as in the usual SPR measurement for vial cells, to which a stimulus as mentioned above is given to determine the signal as a change of permittivity in a conventional procedure.\nas §1, §2\nThe suspension (30 μl)of CTLL-2 cells (2×10^5 cells/ml) in PBS were directly placed onto both of sensor chip-measuring portion and control portion, and the chip was blocked with 50 μl of 1% BSA. The sensor chip was equipped in a flow-cell unit of the SPR analyzer, of which the temperature was set at 37° C. and was perfused with PBS at a flow rate of 15 μl/min."}, "Papilla cells": {"test_system": "Papilla cells", "assay": "SPR measurement of reaction of papilla cells (mesenchyme cells) with bFGF, with or without phosphorylation inhibitor", "settings": "for SPR signal from 10 minutes after the injection: 37° C., 1 μg/ml bFGF alone, or bFGF + 50 μM SU4984", "procedure": "as §1, §2\nPapilla cells were removed from a petri dish with 0.02% EDTA and suspended in a DMEM10 culture medium. The cells (2×10^5 cells/ml, 400 μl) were immobilized on a sensor chip in the same manner as in Example 1.\nPBS was perfused at a flow rate of 15 μl/min at a fixed temperature of 37° C.; 1 μg/ml of bFGF alone was injected into a control portion, and 60 μl of μg/ml bFGF+50 μM phosphorylation inhibitor (SU4984) into a measuring portion; after a lapse of 42 seconds the circuit was closed and the change of signals was measured."}, "[1]": {"settings": "60 μl of 100 ng/ml DNP-HSA, PIPES buffer pH 7.2, 37° C."}, "[2]": {"settings": "10 μg/ml DNP-lysine, PIPES buffer pH 7.2, 37° C."}},
  "data": [
    {"molecule": "dinitrophenyl-human serum albumin [DNP-HSA]", "values": [
      {"measurement": "primary SPR signal in mast cells (FIG. 3)", "setting": "Mast cells; 100 ng/ml DNP-HSA, IgE sensitized versus unsensitized cells", "value": "no primary signal was recorded"},
      {"measurement": "SPR signal in IgE sensitized mast cells", "setting": "Mast cells; [1]", "value": "a strong signal was observed"},
      {"measurement": "SPR signal in IgE unsensitized mast cells", "setting": "Mast cells; [1]", "value": "no characteristic change"}
    ]},
    {"molecule": "N[C@@H](CCCCNc1ccc([N+](=O)[O-])cc1[N+](=O)[O-])C(=O)O", "note": "[DNP-lysine]", "values": [
      {"measurement": "primary SPR signal in mast cells", "setting": "Mast cells; [2]", "value": "primary signal generated by the binding of DNP-lysine was observed"},
      {"measurement": "secondary SPR signal in mast cells", "setting": "Mast cells; [2]", "value": "no secondary signal observed"}
    ]},
    {"molecule": "bFGF: growth factor injected onto papilla cells; does not bind to CTLL-2 cells", "values": [
      {"measurement": "SPR signal (difference between measuring portion and control portion)", "setting": "CTLL-2 cells", "value": "no signal was observed"},
      {"measurement": "SPR signal from 10 minutes after the injection", "setting": "Papilla cells", "value": "ascended continuously"}
    ]},
    {"molecule": "aFGF: agent which does not bind to CTLL-2 cells", "values": [
      {"measurement": "SPR signal (difference between measuring portion and control portion)", "setting": "CTLL-2 cells", "value": "no signal was observed"}
    ]},
    {"molecule": "O=CN1CCN(c2ccc(/C=C3\\C(=O)Nc4ccccc43)cc2)CC1", "note": "[SU4984]", "values": [
      {"measurement": "SPR signal from 10 minutes after the injection", "setting": "Papilla cells", "value": "became plateau"},
      {"measurement": "signal transduction caused by the binding of bFGF", "setting": "Papilla cells; bFGF + 50 μM SU4984", "value": "suppressed"}
    ]},
    {"molecule": "B1", "values": [
      {"measurement": "SPR signal (difference between measuring portion and control portion)", "setting": "CTLL-2 cells", "value": "no signal was observed"}
    ]}
  ]
}
